Numbered stars: 1 amine (or outer) side, 2 acyl side, 3 side chain; on linkers, the order of the positions; unused ones are H or OH. Square brackets hold non-standard residues; d marks the D form. Peptide text beside a SMILES is read from it. * marks the point of attachment. pS = N[C@@H](COP(=O)(O)O)C(=O)O; pNA = O=[N+]([O-])c1ccc(N*)cc1; Suc = O=C(CCC(=O)[*:2])[*:1]

Assay [1] concerns the target T1, His-tagged construct of the K77Q/K82Q PPIase domain (Homo sapiens, UniProt Q13526, K77Q/K82Q).
T1 construct: made in house; host or cells: E. coli BL21(DE3)
Kind of assay: Isothermal titration calorimetry. Type of assay: binding. As for the experimental part:
The working volume of the ITC cell was 1.414 mL. Both solutions contained 25 mM MOPS pH 7.5, 0.5 mM TCEP and 2.0% DMSO (vol./vol.). The PPIase polypeptide solution was prepared by exhaustively dialyzing a stock protein solution against several changes of dialysis buffer (25 mM MOPS pH 7.5, 0.5 mM TCEP) at 4.0° C.
After dialysis the protein was centrifuged to remove any particulate matter. The protein concentration was then determined by absorbance using an extinction coefficient that had been calculated based on the tryptophan and tyrosine content of the protein. The dialysed protein was then diluted with the dialysate and 2.0% (volume to volume) DMSO was added to yield a final concentration of 200 μM protein. […] An aliquot of the stock solution was diluted in DMSO and then an appropriate volume of dialysate was added. The final DMSO concentration was 2.0% (volume to volume) and the final compound concentration was 10 μM.
Appropriate control titrations (buffer into buffer, buffer into compound, and protein into buffer) were performed to determine the heats of dilution. Prior to fitting for the binding parameters, the observed heats of binding were corrected for heat of dilution of the protein. […] The data were fit using the ORIGIN® software package (MicroCal) provided with the ITC (FIG. 6). […] The One Set of Sites model with ligand in the cell was selected.

Assay [2] addresses T2, PPIase domain of PIN1 (Homo sapiens, UniProt Q13526).
T2 construct: made in house; host or cells: E. coli BL21(DE3)
Briefly: Fluorescence polarization competition assay with fluorescein-tagged Pintide. In kind it is binding. The note with it: free Pintide as inhibitor control. An excerpt: This assay is based on fluorescence polarization. In fluorescence polarization detection, monochromatic light passes through a polarized filter and excites molecules in the sample well. Only those molecules that are oriented properly in the polarized plane absorb light, become excited, and subsequently emit light. The emitted light is detected after passing through polarizing filters that are oriented parallel and perpendicular to the plane of excitation. Since small molecules rotate more quickly than large molecules (e.g. in the form of a bound complex), the parallel (S) and perpendicular (P) measurements are closer and the difference is lower. Fluorescence polarization is measured in mP (milliP) which is defined using the following equation: […]
For the PIN1 assay, library compounds compete with fluorescein-tagged Pintide to bind the PPIase domain of PIN1. After a short incubation, samples are assayed using fluorescence polarization. The excitation and emission of fluorescein occur at 485 nm and 530 nm, repectively. […]
Experiments were performed in either 96-well plates or 384-well black flat bottom polystyrene non-binding surface (NBS) plates (Costar). […] Excitation was measured at 485 nm and emission was measured at 530 nm. Readings were taken in a Florescence Polarization reader (Molecular Devices Analyst). […]

For assay [3], the target named is T3, mutant PPIase K77Q/K82Q (Homo sapiens, UniProt Q13526, K77Q/K82Q).
T3 construct: 6xHis (N, cleaved yes); made in house; host or cells: E. coli BL21(DE3)
Kind of assay: PIN1 peptidyl-prolyl isomerase assay (protease-coupled, Suc-AEPF-pNA). In kind it is biochemical. The note with it: 15° C., read-out: Km for this substrate. The protocol: PIN1 is a phosphorylation dependent peptidyl-prolyl isomerase. […] Cleavage of the isomerized peptide releases para-nitroanaline, which can be monitored by an increase in absorbance at 390 nm. […] To minimize the spontaneous isomerization of the peptide substrate, reactions are performed at 15° C.
The rate constant k is linearly proportional to the concentration of active enzyme present in the assay mixture once the rate constant for the spontaneous isomerization is subtracted.

The target in assay [4] is human PIN1 (Homo sapiens, UniProt Q13526). The note with it: Hennig et al., Biochemistry 37: 5953-5960 (1998); cited from earlier work.
Assay [5] relates to Suc-AEPF-pNA peptide substrate. Briefly: Peptidyl-prolyl isomerase activity of PIN1 polypeptides without inhibitor. Type of assay: biochemical. To be noted: 0.033 nM enzyme, 100 μM Suc-AEPF-pNA. An excerpt: PIN1 is a phosphorylation dependent peptidyl-prolyl isomerase. Peptidyl-prolyl ismomerase activity for the peptides of the invention can be measured using a spectrophotometric assay based on the coupled chymotrypsin catalyzed, cis-trans conformation dependent cleavage of a para-nitroanaline-containing peptide substrate. This rotamase assay is described by Kofron et al. (Biochemistry 30, […] (1991)) and its application to PIN1 isomerase activity is described by Yaffe et al. (Science 278, 1957-1960 (1997)). Cleavage of the isomerized peptide releases para-nitroanaline, which can be monitored by an increase in absorbance at 390 nm. The PIN1 peptide substrate, succinyl-alanine-[…]-proline-phenylalanine-paranitroaniline (Suc-AEPF-pNA) (Bachem California, Inc., Torrence, Calif.) is kept in a predominantly cis conformation with an anhydrous TFE (trifluorethanol)/LiCl (lithium chloride) solvent mixture. […]
Peptidyl-prolyl isomerase reactions were carried out in 25 mM MOPS [3-(N-Morpholino)propanesufonic acid], pH 7.5, 0.5 mM TCEP [Tris(2-carboxyethyl)phosphine hydrochloride], 2% DMSO, 5 μl of a 25 mg/ml solution of Subtilisin Carlsberg Protease (Sigma), […], and 100 μM Suc-AEPF-pNA peptide substrate. […] The absorbance at 390 nm was monitored continuously until all substrate had been converted to the cleaved product. […]

Where [6] appears, read: ITC, 15.0° C., duplicate, ± standard deviation.
The mark [7] stands for this setting: best fit of corrected binding data, FIG. 6.

In the case of `O=C(N[C@@H](COP(=O)(O)O)Cc1ccccc1)c1cc2ccccc2s1` [Compound I, Phosphoric acid mono-{(R)-2-[(1-benzo[b]thiophen-2-yl-methanoyl)-amino]-3-phenyl-propyl} ester], in assay [1] (setting [6]), the enthalpy of binding is reported as −7.3 (±0.1) kcal/mol and the stoichiometry was 0.854 (±0.003). For the same molecule, in assay [1] (setting [7]), the C value is given as 142 and the ka came out at 1.42e+07 M⁻¹.

`CC(C)C[C@H](NC(=O)[C@H](Cc1ccccc1)NC(=O)[C@@H]1CCCN1C(=O)[C@H](COP(=O)(O)O)NC(=O)[C@H](Cc1ccc(O)cc1)NC(=O)[C@H](Cc1ccccc1)NC(=O)[C@@H](N)Cc1c[nH]c2ccccc12)C(=O)N[C@@H](CCC(=O)O)C(=O)O` [Pintide] (H-WFY[pS]PFLE-OH) had an IC50 in assay [2] of 7 to 10 µM.

`C[C@H](NC(=O)CCC(=O)O)C(=O)N[C@@H](CCC(=O)O)C(=O)N1CCC[C@H]1C(=O)N[C@@H](Cc1ccccc1)C(=O)Nc1ccc([N+](=O)[O-])cc1` [Suc-AEPF-pNA] (Suc-AEPF-pNA): the Km in assay [3] was greater than 100 µM.

On to `O=C1C=CC(=O)c2c(O)cccc21` [juglone, 5-hydroxy-1,4-naphthoquinone], for which the “inhibition of parvulins, including human PIN1” value in assay [4] is on record as “selectively inhibits”.

Turning to “wild-type PIN1: wild type human PIN1, a phosphorylation dependent peptidyl-prolyl isomerase”, in assay [5], the rate was found to be 0.2.

The values are drawn from US20040171019A1, “PIN1 peptidyl-prolyl isomerase polypeptides, their crystal structures, and use thereof for drug design” (Agouron Pharmaceuticals, Inc., priority 2002, published 2004).
